Results taken from patent US20130035314A1, “METHODS AND KITS FOR DETECTING RISK FACTORS FOR DEVELOPMENT OF JAW OSTEONECROSIS AND METHODS OF TREATMENT THEREOF” (priority 2010, published 2013).
One block for each compound: values may come before it.

Columns and labels:
[1] = Cohort study of multiple myeloma patients on IV BP: risk factors for BONJ (univariate and multivariate logistic regression); format: in vivo, human
Method: Multiple myeloma patients who were on intravenous BP (zoledronate or pamidronate) were recruited to voluntarily participate in this Institution Review Board (IRB) approved study. These patients signed informed consents and were followed routinely in the outpatient clinic. In addition to MM treatments, patients received either pamidronate 90mg or zoledronate 4mg IV monthly. Demographic and clinical information were verified from reviewing the medical records and tabled for analysis. Certain life style factors such as smoking at any time in the past, as well as certain co-morbidities such as diabetes mellitus, and prior drugs used were among the data collected on all patients.
Patients were considered to have BONJ if all of the following three characteristics are present (American Association of Oral and Maxillofacial Surgeons position paper, J Oral Maxillofac Surg, 65(3):369-76, 2007): 1) Current or previous treatment with a bisphosphonate; 2) Exposed bone in the maxillofacial region that has persisted for more than eight weeks; and 3) No history of radiation therapy to the jaws. […]
Baseline characteristics were compared by student's t-test or chi-square tests as appropriate. Allele frequencies deviations from Hardy-Weinberg Equilibrium (HWE) were assessed using chi-square tests with one degree of freedom. […]

[2] = Chart review of BONJ incidence in bisphosphonate-treated cancer patients; format: in vivo, human; details: outpatient bone marrow transplant clinic, all patients had myeloma; pamidronate only
From the text: Medical and dental charts at the University of Florida (UF) and the associated Veterans Administration Medical Center (VAMC) were reviewed. […] There were 21 males. […] Fourteen patients had modest increases in their serum creatinine concentrations. The average number of previous chemo/radiotherapy regimens was 3.5. […] Primary disease status was as follows: 12 patients in clinical remission, 5 with stable disease and 10 with progressive disease. Eight patients received statin therapy and 6 had diabetes mellitus. The median length of treatment with bisphosphonate (BP) before the diagnosis of BONJ was 28 months. BONJ involved the mandible in 21 patients, maxilla in 4 and both in 2 patients. The most frequent presentation was pain, swelling, and exposed bone (FIG. 1). […] The BONJ incidence differed among the 3 centers where these patients were treated. […] The incidence in the VAMC was 4.2% while the incidence in the Cancer Center clinic at UF was 1.7%. In the latter two groups, patients had mostly solid tumors. The results described herein are consistent with the reports of increased incidence of BONJ with greater duration of therapy and that myeloma patients are more likely to develop the complication than solid tumor patients.

Odds Ratio for BONJ ([1]; multivariate logistic regression analysis of potential risk factors, MM patients on IV BP): 0.106
SMILES: O=C1CCC(N2C(=O)c3ccccc3C2=O)C(=O)N1 (stereo not drawn) [Thalidomide]

SMILES: NCCC(O)(P(=O)(O)O)P(=O)(O)O [pamidronate]
BONJ incidence [2]: 4%

SMILES: O=P(O)(O)C(O)(Cn1ccnc1)P(=O)(O)O [zoledronate]
association between BONJ and treatment ([1]; univariate analysis, persisted in multivariate logistic regression, P=0.00029, 78 MM patients, 12 with BONJ): significant association
